This note sets out measurements from patent US20250205344A1, “2,4-DIOXOTETRAHYDROPYRIMIDINYL DERATIVES AS DEGRONS IN PROTACS” (GLAXOSMITHKLINE INTELLECTUAL PROPERTY DEVELOPMENT LIMITED, priority 2022, published 2025).

Where a name gives a salt, the structure may show the parent alone.

For this assay, the target named is T1, Androgen Receptor (Homo sapiens, UniProt P10275, T878A).
T1 construct: the AR gene was modified, using CRISPR/Cas9 editing, so the expressed AR protein included an 11 amino acid HiBiT tag; endogenous in cells; host or cells: clonal LnCaP-derived line, AR gene edited by CRISPR/Cas9
Nature of the assay: Androgen Receptor Degradation Assay (Nano-Glo HiBiT). It counts as cell-based. As to conditions: LNCaP, 18 h, HiBiT-tagged AR in human LnCaP cells, read-out: mean asymptote max. The method in brief: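 LnCaP cells with CRISPR-knocked-in N-terminal HiBiT-tagged AR (10,000/well) treated 18 h at 37 °C with PROTACs over 11 threefold concentrations; lytic HiBiT luminescence normalised to DMSO (0%) and cell-free (100%) controls. Relative DC50 = 4-parameter fit inflection; absolute DC50 = 50% degradation interpolation; Dmax = maximum observed degradation.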

T1 sequence (P10275 whole entry T878A): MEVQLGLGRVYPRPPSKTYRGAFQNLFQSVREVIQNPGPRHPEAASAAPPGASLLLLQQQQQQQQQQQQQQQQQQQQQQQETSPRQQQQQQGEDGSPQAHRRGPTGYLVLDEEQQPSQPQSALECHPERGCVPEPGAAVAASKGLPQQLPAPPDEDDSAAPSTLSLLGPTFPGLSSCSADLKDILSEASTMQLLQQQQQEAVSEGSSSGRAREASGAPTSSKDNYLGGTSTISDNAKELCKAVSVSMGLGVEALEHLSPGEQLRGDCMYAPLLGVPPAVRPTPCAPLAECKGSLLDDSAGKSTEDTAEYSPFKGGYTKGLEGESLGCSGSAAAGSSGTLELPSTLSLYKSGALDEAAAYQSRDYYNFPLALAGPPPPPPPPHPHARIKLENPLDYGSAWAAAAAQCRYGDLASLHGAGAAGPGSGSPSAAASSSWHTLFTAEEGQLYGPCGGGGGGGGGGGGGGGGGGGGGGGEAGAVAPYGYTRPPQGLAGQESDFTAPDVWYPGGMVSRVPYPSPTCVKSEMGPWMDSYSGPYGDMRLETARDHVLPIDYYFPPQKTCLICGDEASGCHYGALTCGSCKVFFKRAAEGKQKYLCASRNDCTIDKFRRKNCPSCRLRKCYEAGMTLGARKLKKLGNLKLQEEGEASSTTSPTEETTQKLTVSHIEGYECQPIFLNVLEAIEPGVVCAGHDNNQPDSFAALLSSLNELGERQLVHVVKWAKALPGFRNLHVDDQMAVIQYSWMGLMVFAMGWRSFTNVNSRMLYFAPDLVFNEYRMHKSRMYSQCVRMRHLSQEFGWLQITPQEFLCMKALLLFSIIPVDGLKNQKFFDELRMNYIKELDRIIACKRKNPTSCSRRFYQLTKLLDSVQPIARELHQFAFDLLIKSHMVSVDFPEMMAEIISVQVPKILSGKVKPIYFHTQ
T1 sequence (Q96SW2 whole entry partner): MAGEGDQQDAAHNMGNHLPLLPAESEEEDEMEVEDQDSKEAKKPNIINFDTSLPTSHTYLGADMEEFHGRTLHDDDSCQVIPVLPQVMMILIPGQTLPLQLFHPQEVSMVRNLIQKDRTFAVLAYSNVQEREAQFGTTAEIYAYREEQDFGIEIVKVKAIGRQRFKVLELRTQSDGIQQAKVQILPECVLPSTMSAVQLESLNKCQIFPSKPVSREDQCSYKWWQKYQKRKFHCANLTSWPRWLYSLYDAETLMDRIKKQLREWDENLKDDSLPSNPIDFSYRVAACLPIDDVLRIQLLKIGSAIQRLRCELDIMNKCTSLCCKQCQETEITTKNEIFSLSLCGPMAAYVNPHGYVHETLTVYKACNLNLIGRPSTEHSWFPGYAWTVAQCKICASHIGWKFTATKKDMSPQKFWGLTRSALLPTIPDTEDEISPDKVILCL
T1 sequence (Q16531 whole entry partner): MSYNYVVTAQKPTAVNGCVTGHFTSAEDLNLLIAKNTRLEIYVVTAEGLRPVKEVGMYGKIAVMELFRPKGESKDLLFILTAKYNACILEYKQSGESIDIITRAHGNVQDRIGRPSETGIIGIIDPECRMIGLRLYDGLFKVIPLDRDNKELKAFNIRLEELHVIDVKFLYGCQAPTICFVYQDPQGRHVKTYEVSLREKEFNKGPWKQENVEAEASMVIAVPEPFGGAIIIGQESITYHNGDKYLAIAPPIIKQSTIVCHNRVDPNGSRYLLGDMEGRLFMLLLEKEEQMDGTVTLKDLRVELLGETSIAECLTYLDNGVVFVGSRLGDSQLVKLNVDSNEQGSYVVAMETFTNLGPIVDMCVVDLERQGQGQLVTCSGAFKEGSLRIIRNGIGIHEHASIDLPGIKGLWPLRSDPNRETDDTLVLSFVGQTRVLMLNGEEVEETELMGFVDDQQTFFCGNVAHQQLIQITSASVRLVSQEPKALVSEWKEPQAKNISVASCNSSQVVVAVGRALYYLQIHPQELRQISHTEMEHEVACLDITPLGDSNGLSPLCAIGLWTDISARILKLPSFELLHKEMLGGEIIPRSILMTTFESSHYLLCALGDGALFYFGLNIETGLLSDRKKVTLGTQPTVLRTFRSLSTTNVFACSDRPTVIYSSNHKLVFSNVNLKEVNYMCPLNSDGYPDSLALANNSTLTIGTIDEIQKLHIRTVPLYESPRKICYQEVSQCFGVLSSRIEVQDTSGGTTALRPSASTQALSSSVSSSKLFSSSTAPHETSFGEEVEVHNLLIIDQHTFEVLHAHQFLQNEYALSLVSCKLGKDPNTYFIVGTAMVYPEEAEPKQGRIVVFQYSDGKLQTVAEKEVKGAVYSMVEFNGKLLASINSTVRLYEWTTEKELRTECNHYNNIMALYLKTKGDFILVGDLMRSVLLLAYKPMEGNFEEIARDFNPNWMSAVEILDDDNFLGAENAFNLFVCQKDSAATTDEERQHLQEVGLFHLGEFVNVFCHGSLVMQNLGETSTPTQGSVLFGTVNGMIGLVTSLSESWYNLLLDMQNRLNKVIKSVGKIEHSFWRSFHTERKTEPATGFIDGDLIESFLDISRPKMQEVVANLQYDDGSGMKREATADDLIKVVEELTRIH

In the case of `C[C@@H]1CN(c2ccc(C#N)c(Cl)c2)[C@@H](C)CN1C(=O)Nc1ccc(N2CCC(CCN3CCC(n4ccc5c(N6CCC(=O)NC6=O)cccc54)CC3)CC2)nc1` (racemic) [EAR115, rac-(trans)-4-(3-Chloro-4-cyanophenyl)-N-(6-(4-(2-(4-(4-(2,4-dioxotetrahydropyrimidin-1(2H)-yl)-1H-indol-1-yl)piperidin-1-yl)ethyl)piperidin-1-yl)pyridin-3-yl)-2,5-dimethylpiperazine-1-carboxamide], the Dmax is at least 50%.
`N#Cc1ccc(O[C@H]2CC[C@H](NC(=O)c3cnc(N4CCC(CN5CCC(n6ncc7c(N8CCC(=O)NC8=O)c(F)ccc76)CC5)CC4)cn3)CC2)cc1Cl` [EAR190, N-((1r,4r)-4-(3-Chloro-4-cyanophenoxy)cyclohexyl)-5-(4-((4-(4-(2,4-dioxotetrahydropyrimidin-1(2H)-yl)-5-fluoro-1H-indazol-1-yl)piperidin-1-yl)methyl)piperidin-1-yl)pyrazine-2-carboxamide hydrochloride]: the Dmax was at least 50%.
`N#Cc1ccc(O[C@H]2CC[C@H](NC(=O)c3ccc(N4CCC(CN5CCC(n6ccc7c(N8CCC(=O)NC8=O)cccc76)CC5)CC4)c(F)c3)CC2)cc1Cl` [EAR206, N-((1r,4r)-4-(3-Chloro-4-cyanophenoxy)cyclohexyl)-4-(4-((4-(4-(2,4-dioxotetrahydropyrimidin-1(2H)-yl)-1H-indol-1-yl)piperidin-1-yl)methyl)piperidin-1-yl)-3-fluorobenzamide]: the Dmax is at least 50%.
In the case of `CC1(C)C(=O)N(c2ccc(C#N)c(C(F)(F)F)c2)C(=S)N1c1ccc(OCCCN2CCC(n3ccc4c(N5CCC(=O)NC5=O)cncc43)CC2)cc1` [EAR104, 4-(3-(4-(3-(4-(4-(2,4-Dioxotetrahydropyrimidin-1(2H)-yl)-1H-pyrrolo[2,3-c]pyridin-1-yl)piperidin-1-yl)propoxy)phenyl)-4,4-dimethyl-5-oxo-2-thioxoimidazolidin-1-yl)-2-(trifluoromethyl)benzonitrile] it was at least 50%.
In the case of `N#Cc1ccc(O[C@H]2CC[C@H](NC(=O)c3ccc(N4CCO[C@H](CN5CCC(n6ccc7c(N8CCC(=O)NC8=O)cccc76)CC5)C4)nn3)CC2)cc1Cl` [EAR123, N-((1r,4R)-4-(3-Chloro-4-cyanophenoxy)cyclohexyl)-6-((R)-2-((4-(4-(2,4-dioxotetrahydropyrimidin-1(2H)-yl)-1H-indol-1-yl)piperidin-1-yl)methyl)morpholino)pyridazine-3-carboxamide] it was at least 50%; in that of `N#Cc1ccc(O[C@H]2CC[C@H](NC(=O)c3ccc(N4CCC(CN5CCC(n6ncc7c(N8CCC(=O)NC8=O)cc(C(F)(F)F)cc76)CC5)CC4)nn3)CC2)cc1Cl` [EAR161, N-((1r,4r)-4-(3-Chloro-4-cyanophenoxy)cyclohexyl)-6-(4-((4-(4-(2,4-dioxotetrahydropyrimidin-1(2H)-yl)-6-(trifluoromethyl)-1H-indazol-1-yl)piperidin-1-yl)methyl)piperidin-1-yl)pyridazine-3-carboxamide], at least 50%; in that of `N#Cc1ccc(O[C@H]2CC[C@H](NC(=O)c3ccc(OCCCCN4CCC(n5ccc6c(N7CCC(=O)NC7=O)cccc65)CC4)cn3)CC2)cc1Cl` [EAR66, N-((1r,4r)-4-(3-chloro-4-cyanophenoxy)cyclohexyl)-5-(4-(4-(4-(2,4-dioxotetrahydropyrimidin-1(2H)-yl)-1H-indol-1-yl)piperidin-1-yl)butoxy)picolinamide], at least 50%.
`CC1CC(CN2CCC(n3ncc4c(N5CCC(=O)NC5=O)cccc43)CC2)CCN1c1ccc(C(=O)N[C@H]2CC[C@H](Oc3ccc(C#N)c(Cl)c3)CC2)nn1` (stereo partly drawn) [EAR229]: the Dmax is at least 50%.
With `CC(C)n1ccc2c(N3CCC(=O)NC3=O)cc(C(=O)N3CCN(CC4CCN(c5ccc(C(=O)N[C@H]6C(C)(C)[C@H](Oc7ccc(C#N)c(Cl)c7)C6(C)C)nn5)CC4)CC3)cc21` [EAR78, N-((1r,3r)-3-(3-Chloro-4-cyanophenoxy)-2,2,4,4-tetramethylcyclobutyl)-6-(4-((4-(4-(2,4-dioxotetrahydropyrimidin-1(2H)-yl)-1-isopropyl-1H-indole-6-carbonyl)piperazin-1-yl)methyl)piperidin-1-yl)pyridazine-3-carboxamide], the Dmax is at least 50%.
Take `N#Cc1ccc(O[C@H]2CC[C@H](NC(=O)c3ccc(N4CCO[C@@H](CN5CCC(n6ccc7c(N8CCC(=O)NC8=O)cccc76)CC5)C4)nn3)CC2)cc1Cl` [EAR125, N-((1r,4S)-4-(3-Chloro-4-cyanophenoxy)cyclohexyl)-6-((S)-2-((4-(4-(2,4-dioxotetrahydropyrimidin-1(2H)-yl)-1H-indol-1-yl)piperidin-1-yl)methyl)morpholino)pyridazine-3-carboxamide]: the Dmax is at least 50%.
For `CC(C)n1ccc2c(N3CCC(=O)NC3=O)cc(C(=O)N3CCN(CCCCCCc4ccc(C(=O)N[C@H]5C(C)(C)[C@H](Oc6ccc(C#N)c(C(F)(F)F)c6)C5(C)C)cc4)CC3)cc21` [EAR87, N-((1r,3r)-3-(4-Cyano-3-(trifluoromethyl)phenoxy)-2,2,4,4-tetramethylcyclobutyl)-4-(6-(4-(4-(2,4-dioxotetrahydropyrimidin-1(2H)-yl)-1-isopropyl-1H-indole-6-carbonyl)piperazin-1-yl)hexyl)benzamide], the Dmax was at least 50%.
In the case of `CN(c1ccc(C#N)c(Cl)c1)[C@H]1CC[C@H](NC(=O)c2ccc(N3CCC(CN4CCC(n5ccc6c(N7CCC(=O)NC7=O)ncnc65)CC4)CC3)nn2)CC1` [EAR214, N-((1r,4r)-4-((3-Chloro-4-cyanophenyl)(methyl)amino)cyclohexyl)-6-(4-((4-(4-(2,4-dioxotetrahydropyrimidin-1(2H)-yl)-7H-pyrrolo[2,3-d]pyrimidin-7-yl)piperidin-1-yl)methyl)piperidin-1-yl)pyridazine-3-carboxamide hydrochloride] it was at least 50%; in that of `CC1(C)C(=O)N(c2ccc(C#N)c(C(F)(F)F)c2)C(=S)N1c1ccc(N2CCC(CCN3CCC(n4ncc5c(N6CCC(=O)NC6=O)cncc54)CC3)CC2)cc1` [EAR97, 4-(3-(4-(4-(2-(4-(4-(2,4-Dioxotetrahydropyrimidin-1(2H)-yl)-1H-pyrazolo[3,4-c]pyridin-1-yl)piperidin-1-yl)ethyl)piperidin-1-yl)phenyl)-4,4-dimethyl-5-oxo-2-thioxoimidazolidin-1-yl)-2-(trifluoromethyl)benzonitrile formate], at least 50%; in that of `N#Cc1ccc(O[C@H]2CC[C@H](NC(=O)c3ccc(CN4CCC(n5ccc6c(N7CCC(=O)NC7=O)cccc65)CC4)cc3)CC2)cc1Cl` [EAR180, N-((1r,4r)-4-(3-Chloro-4-cyanophenoxy)cyclohexyl)-4-((4-(4-(2,4-dioxotetrahydropyrimidin-1(2H)-yl)-1H-indol-1-yl)piperidin-1-yl)methyl)benzamide], at least 50%.
Turning to `N#Cc1ccc(O[C@H]2CC[C@H](NC(=O)c3ccc(N4CCC(CN5CC[C@H](n6ccc7c(N8CCC(=O)NC8=O)cccc76)C5)CC4)nn3)CC2)cc1Cl` [EAR171, N-((1r,4r)-4-(3-Chloro-4-cyanophenoxy)cyclohexyl)-6-(4-(((R)-3-(4-(2,4-dioxotetrahydropyrimidin-1(2H)-yl)-1H-indol-1-yl)pyrrolidin-1-yl)methyl)piperidin-1-yl)pyridazine-3-carboxamide, hydrochloride], the Dmax is at least 50%.
